Laboratory results: patent US20240300973A1, “MODULATORS OF FPR1 AND METHODS OF USING THE SAME” (BIOFRONT THERAPEUTICS (BEIJING) CO., LTD., priority 2021, published 2024)

Target: T1, FPR1 (UniProt P21462)
T1 sequence (P21462 1-350): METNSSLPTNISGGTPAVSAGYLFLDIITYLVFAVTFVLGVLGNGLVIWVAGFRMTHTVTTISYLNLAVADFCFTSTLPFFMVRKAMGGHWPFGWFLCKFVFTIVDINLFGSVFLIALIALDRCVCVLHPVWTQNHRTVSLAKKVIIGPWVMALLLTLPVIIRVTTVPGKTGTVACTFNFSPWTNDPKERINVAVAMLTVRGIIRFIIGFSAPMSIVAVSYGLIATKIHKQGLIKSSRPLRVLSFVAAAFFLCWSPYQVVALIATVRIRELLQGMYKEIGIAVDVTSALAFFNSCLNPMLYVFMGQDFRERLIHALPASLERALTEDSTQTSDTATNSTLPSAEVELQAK
Assay: fMLP-FPR1 mediated intracellular calcium signaling assay in FPR1-overexpressing 293T cells
Assay type: cell-based, human or mouse
Details: inhibition of fMLP-stimulated intracellular calcium change; hFPR1 or mFPR1 overexpressing 293T cells; 10 min pre-incubation; INDO-1 AM, FACS; read-out: IC50 (nM), potency in calcium signaling assay
Protocol: The effects of the compounds of this disclosure on regulating the FPR1-mediated cell signaling were measured by monitoring the cellular calcium level change, as illustrated by the exemplary examples in Table 2. The dose responses of the illustrated examples are reported categorically using the following ranking criteria: *** (IC50≤100 nM); ** (IC50≥100 to ≤1000 nM); * (IC50≥1000 to ≤10,000 nM); N.D.—not detected.
The coding DNA sequence (CDS) of human FPR1 (NM_001193306) and mouse FPR1 (NM_013521) were cloned and inserted to the lentivirus vector GV367 (Vector information: • http://www.genechem.com.cn/index/supports/tool_search.html?keywords=GV367) under the conduction of pCMV promoter. 293T cells were cultured in H-DMEM supplemented with 10% FBS and 1% penicillin—streptomycin (PS) at 37° C. in 5% CO2 Incubator. […] The overexpression of human or mouse FPR1 in 293 T cells were detected by immunostaining with anti-mouse or human FPR1 antibodies (Biolegend or Antibody Online). […]
Cultured hFPR1 or mFPR1 overexpressing 293T cells were labeled with 1 μM INDO-1 AM calcium sensor dye (eBioscience) for 30 min at 37° C. […] The cytoplasmic calcium levels were then measured by FACS Aria III at 37° C. prior to and after the stimulation of fMLP. […] The change of intracellular calcium was calculated as follow: (basal value-minimum value)/basal value×100%. […]

IC50 [nM]	Compound
1000 to 10000	Cc1ccc(O)c(-c2onc3c2C(c2ccc(C(F)(F)F)cc2)N(C2CCOCC2)C3=O)c1 (racemic) [Compound 1, rac-3-(2-hydroxy-5-methylphenyl)-5-(tetrahydro-2H-pyran-4-yl)-4-(4-(trifluoromethyl)phenyl)-4,5-dihydro-6H-pyrrolo[3,4-c]isoxazol-6-one]
100 to 1000	Cc1ccc(O)c(-c2noc3c2C(c2ccc(C(F)(F)F)cc2)N(C2CCOCC2)C3=O)c1 (racemic) [Compound 2, rac-3-(2-hydroxy-5-methylphenyl)-5-(tetrahydro-2H-pyran-4-yl)-4-(4-(trifluoromethyl)phenyl)-4,5-dihydro-6H-pyrrolo[3,4-d]isoxazol-6-one]
